Laboratory results taken from patent publication US20180146698A1, “FORMULA FEED FOR POULTRY” (JXTG Nippon Oil & Energy Corporation, priority 2015, published 2018).

Key:
[1] = cited from earlier work
[2] = cited from earlier work; remark: listed apart in the source
chickens [3] = assay: Chicken egg color enhancement test 3: yolk color fan value, feeds with corn contents of 0% to 30%; assay type: in vivo; conditions: coloring agent 2 ppm or 4 ppm
Experimental: The effects of the present invention were confirmed using feeds with corn contents of 0% to 30% in the same manner as in Example 1.
Formula feeds were prepared by adding astaxanthin or t-capsanthin to feeds with the compositions listed in Table 7 so as to result in a final concentration of 2 ppm or 4 ppm. In this Example, the feeds were the same except the corn content and the content of brown rice, which is added depending on a decrease in the corn content, and corn-derived corn gluten meal was not mixed therein.

Julia Light hens [4] = assay: Chicken egg color enhancement test 1: yolk color fan value, low- and standard-corn-content feed; assay type: in vivo, chickens
Experimental: A preparation of dry cells of a Paracoccus bacterium (with an astaxanthin content of 2%) and a paprika colorant preparation (with a t-capsanthin content of 0.25%) were used as coloring agents for evaluation. Cells of a nitrosoguanidine mutant strain obtained from the Paracoccus carotinifaciens E-396 strain (FERM BP-4283) were used as carotenoid-producing Paracoccus bacterial cells for a preparation of dry cells of a Paracoccus bacterium. The preparation was cultured in a seed flask medium and then cultured in a main culture medium at 28° C. under aerobic conditions until the bacterial cell concentration reached the maximum level. Next, the cultured cells were collected and recovered using a centrifuge. The recovered Paracoccus bacterial cells were dried using a double drum dryer at a drum rotation speed of 3.5 rpm and a drum temperature of 140° C. The average particle size (volume particle size D50) of the obtained power was approximately […]. The powder was further finely powderized (pulverized) using a jet mill (Seishin Enterprise Co., Ltd.) so that the average particle size (D50) became 9 μm. The obtained product was used as a preparation of dry cells of a Paracoccus bacterium. As a paprika colorant preparation, Color Up (a product with a total xanthophyll concentration of 5 g/kg, Kohkin Chemical Co., Ltd.) was used. The above preparations were added to a low-corn-content feed and a standard-corn-content feed listed in Table 1, thereby preparing formula feeds each containing astaxanthin or t-capsanthin at a final concentration of 1, 2, 4, or 8 ppm. Table 2 lists measured concentrations of astaxanthin and t-capsanthin contained in the actually produced formula feeds. Julia Light hens were used for tests. Ten chickens were provided for each test plot. The acclimatization period was set to 2 weeks. Eggs collected in Week 2, during which the color fan value became stabilized, or later, were evaluated. Eggs were collected from each test plot. The color fan values of 10 chicken eggs were measured using Egg Multitester EMT-7300 (JA Z-Tamago Co., Ltd.) for each test plot. The yolk carotenoid concentration was determined for 3 eggs for each test plot. FIGS. 1 and 2 show the relationship between the concentrations of astaxanthin and t-capsanthin in both feeds and the yolk color fan values of the obtained eggs. Based on the results of FIGS. 1 and 2, the concentrations of astaxanthin and t-capsanthin to be added to the low-corn-content feed in order to achieve a desired color fan value of 10 to 15 were calculated (Table 3). For example, in order to achieve a color fan value of 13, astaxanthin may be added to the low-corn-content feed so as to result in a final concentration of 2.2 ppm. Meanwhile, t-capsanthin needs to be added so as to result in a final concentration of 4.3 ppm.

Julia Light hens [5] = assay: Yolk carotenoid concentration by HPLC, eggs of Example 1; assay type: in vivo, chickens; conditions: colorant added at 1 to 8 ppm
Experimental: Eggs were collected from each test plot. The color fan values of 10 chicken eggs were measured using Egg Multitester EMT-7300 (JA Z-Tamago Co., Ltd.) for each test plot. The yolk carotenoid concentration was determined for 3 eggs for each test plot.
Carotenoid quantities in the yolk and each feed were determined via high performance liquid chromatography (HPLC) as described below.
Two columns (Inertsil SIL-100A, 5 μm (ϕ 4.6×250 mm), GL Sciences) were connected in series for use. Elution was carried out with the introduction of an n-hexane/tetrahydrofuran/methanol liquid mixture (40:20:1) as a mobile phase at a constant temperature (around room temperature) and a flow rate of 1.0 mL per minute. Upon determination, samples were each dissolved in tetrahydrofuran and appropriately diluted with the mobile phase such that injection volume was adjusted to 20 μL. The detection for column eluate was carried out at a wavelength of 470 nm.
The yolk carotenoid concentration of eggs obtained in Example 1 was determined by the method described in Example 1 for three eggs for each test plot.
The standard-corn-content feed and the low-corn-content feed were compared in terms of the colorant concentration in the yolk when the coloring agents used in Example 1 were added to each feed at concentrations of 1 to 8 ppm.

chickens [6] = assay: Yolk carotenoid content and composition 2 (eggs of Examples 5 and 6); conditions: corn contents of 30% to 50%; 1 to 16 ppm; fed 2 to 4 weeks
chickens [7] = assay: Yolk carotenoid content and composition 3 (eggs of Example 8); assay type: in vivo; conditions: 2 ppm or 4 ppm; corn contents of 0% to 30%; fed 2 to 4 weeks
Experimental: The yolk carotenoid concentration in eggs obtained in Example 8 was determined for five eggs for each test plot in the same manner as in Example 1.

chickens [8] = assay: Yolk color measurement using colorimeter 1 (eggs of Example 5); assay type: in vivo; conditions: coloring agent 8 ppm or less; corn content 30% to 50%
Experimental: The yolk color was measured using a colorimeter (CM-700d, Konica Minolta Inc.) for eggs obtained in Example 5 and eggs obtained by using formula feeds listed in Table 5, which had been prepared by adding astaxanthin or t-capsanthin to a feed with a corn content of 40% so as to result in a final concentration of 2 ppm. FIGS. 9a to 9c show the measurement results of the L*, a*, and b* values, respectively.

chickens [9] = assay: Yolk color measurement using colorimeter 2 (eggs of Example 8); assay type: in vivo; conditions: 2 ppm or 4 ppm; corn contents of 0% to 30%
Experimental: The yolk color of eggs obtained in Example 8 was measured using a colorimeter (CM-700d, Konica Minolta Inc.). FIGS. 14a to 14c show the measurement results of the L*, a*, and b* values, respectively.

[10] = desired CF value 10, low-corn-content feed
[11] = desired CF value 11, low-corn-content feed
[12] = desired CF value 12, low-corn-content feed
[13] = desired CF value 13, low-corn-content feed
[14] = desired CF value 14, low-corn-content feed

Structure (SMILES): CC1=C(/C=C/C(C)=C/C=C/C(C)=C/C=C/C=C(C)/C=C/C=C(C)/C=C/C2=C(C)C(=O)[C@@H](O)CC2(C)C)C(C)(C)C[C@H](O)C1=O [Astaxanthin, astaxanthin]
- lipid peroxidation inhibition activity, stronger compared with vitamin E [1]: about 1000 fold
- singlet oxygen quenching activity, stronger compared with vitamin E [2]: about 500 fold
- color fan value compared with t-capsanthin (chickens [3]): greater than that achieved by using t-capsanthin
- amount of astaxanthin relative to t-capsanthin to achieve the desired color fan value (Julia Light hens [4]; color fan value of 13, low-corn-content feed): approximately 51%
- change of color fan value, low-corn-content vs standard-corn-content feed (Julia Light hens [4]; colorant added at 4 ppm): increased
- CF value (Julia Light hens [4]; colorant added at 4 ppm, standard-corn-content feed): 12.8
- Astaxanthin/t-Capsanthin ratio (Julia Light hens [4]; [10]): 0.56
- Colorant concentration in feed necessary for achieving the desired CF value (Julia Light hens [4]; [10]): 1.0 ppm
- Astaxanthin/t-Capsanthin ratio (Julia Light hens [4]; [11]): 0.54
- Colorant concentration in feed necessary for achieving the desired CF value (Julia Light hens [4]; [11]): 1.3 ppm
- Astaxanthin/t-Capsanthin ratio (Julia Light hens [4]; [12]): 0.53
- Colorant concentration in feed necessary for achieving the desired CF value (Julia Light hens [4]; [12]): 1.7 ppm
- Astaxanthin/t-Capsanthin ratio (Julia Light hens [4]; [13]): 0.51
- Colorant concentration in feed necessary for achieving the desired CF value (Julia Light hens [4]; [13]): 2.2 ppm
- Astaxanthin/t-Capsanthin ratio (Julia Light hens [4]; [14]): 0.53
- Colorant concentration in feed necessary for achieving the desired CF value (Julia Light hens [4]; [14]): 3.2 ppm
- Colorant concentration in feed necessary for achieving the desired CF value (Julia Light hens [4]; desired CF value 15, low-corn-content feed): 7.0 ppm
- yolk colorant concentration, low-corn-content vs standard-corn-content feed (Julia Light hens [5]): greater than that in eggs obtained from chickens fed with the standard-corn-content feed
- amount of colorant accumulated in the yolk in relation to corn content (chickens [6]): tended to increase as the corn content decreased
- concentration transferred to the yolk compared with t-capsanthin (chickens [7]): greater than that of t-capsanthin
- a* value (red color) of yolk compared with t-capsanthin (chickens [8]): greater than that obtained with the addition of t-capsanthin
- a* value (red color) of yolk in relation to corn content (chickens [9]): did not cause the a* value to significantly vary
